Numbering of substitutions follows the chain as printed.
Assays:
[1] = Solubility in aqueous solutions (crystallization sample preparation); assay type: physicochemical
Method: K2P2.1cryst ML335 and ML402 complex crystals grew in the same conditions as K2P2.1cyst, but the protein was incubated for at least 1 h with 2.5 mM of activator before setting the crystal plates. […] Then each compound was diluted 1:100 in SEC buffer to 5 mM concentration, giving a milky solution. This solution was mixed 1:1 to K2P2.1cryst previously concentrated to 12 mg ml^−1. […] The samples were briefly centrifuged in a table-top centrifuge (10,000 g) to remove any insoluble material before setting the crystal plates.

K2P4.1 (TRAAK) = target: T1, K2P4.1 (TRAAK) (Homo sapiens, UniProt Q9NYG8); details: previous studies; cited from earlier work
T1 sequence (Q9NYG8 1-393): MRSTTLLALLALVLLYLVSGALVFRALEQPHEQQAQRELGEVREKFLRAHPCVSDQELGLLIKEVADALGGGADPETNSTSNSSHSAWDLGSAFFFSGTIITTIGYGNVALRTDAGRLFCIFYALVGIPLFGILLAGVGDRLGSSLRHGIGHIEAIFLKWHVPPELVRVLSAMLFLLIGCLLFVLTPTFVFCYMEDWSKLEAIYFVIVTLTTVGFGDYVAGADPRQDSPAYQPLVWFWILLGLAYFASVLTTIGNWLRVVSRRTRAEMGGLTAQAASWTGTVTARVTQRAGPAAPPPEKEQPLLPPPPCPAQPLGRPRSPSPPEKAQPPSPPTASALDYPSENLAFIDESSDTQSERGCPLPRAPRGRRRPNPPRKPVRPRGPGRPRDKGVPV

A286F TREK-1^CG* = target: T2, A286F TREK-1^CG* (Mus musculus, UniProt P97438, A301F/S146C); experiment: Resting membrane potential, current-clamp (I=0) in HEK293 cells; assay type: cell-based; details: 20 μM CAT335
T2 construct: expressed in transfected cells; host or cells: Xenopus laevis oocytes injected with mRNA
T2 sequence (P97438 1-411 isoform P97438-2 S131C/A286F): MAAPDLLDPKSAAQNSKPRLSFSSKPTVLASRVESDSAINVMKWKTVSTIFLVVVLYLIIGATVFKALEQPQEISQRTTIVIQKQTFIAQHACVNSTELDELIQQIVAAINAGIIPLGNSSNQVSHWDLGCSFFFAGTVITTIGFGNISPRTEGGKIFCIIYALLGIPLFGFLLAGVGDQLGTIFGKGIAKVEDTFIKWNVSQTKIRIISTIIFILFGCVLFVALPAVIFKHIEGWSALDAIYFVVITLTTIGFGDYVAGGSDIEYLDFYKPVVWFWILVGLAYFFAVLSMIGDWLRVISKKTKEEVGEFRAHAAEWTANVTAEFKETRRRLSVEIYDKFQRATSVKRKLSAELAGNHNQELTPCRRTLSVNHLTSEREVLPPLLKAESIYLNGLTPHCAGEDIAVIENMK
From the text: (§1) Mouse K2P2.1 (TREK-1) (Genbank accession number: NP_034737.2), mouse K2P10.1 (TREK-2) (NM_001316665.1), mouse K2P4.1 (TRAAK) (NM_008431.3), human K2P4.1 (TRAAK) (NM_033310.2) and mouse K2P18.1(TRESK) (NM_207261.3) were used for this study. Point mutations were introduced by site-directed mutagenesis using custom primers and confirmed by sequencing before use. For studies using Xenopus oocytes, K2P channels were subcloned into a previously reported pGEMHE/pMO vector (46). For expression in HEK293 cells, mouse K2P2.1 (TREK-1) and mutants were expressed from a previously described pIRES2-EGFP vector in HEK293 cells (46,47). K2P2.1 (TREK-1) tandems were constructed by connecting the open reading frames for the individual subunits with a linker encoding the […] (SEQ ID NO: 19) sequence. Tandems used for HEK293 cells included an N-terminal HA tag ([…] (SEQ ID NO: 20)) on the first subunit.
(§2) 50% confluent cells were co-transfected (in 35-mm diameter wells) with 10-100 ng of the K2P2.1 plasmid and 400 ng of an eGFP plasmid (for visualization) using LipofectAMINE 2000 (Invitrogen) for 24 h, after which the cells were either plated onto coverslips or the media exchanged with fresh media. […]
(§3) Whole-cell patch-clamp experiments with K2P2.1(TREK-1) and mutants were carried out 24-48 h after transfection. […] Data were analyzed using Clampfit 11 and GraphPad Prism 9.

TREK-1^CG* = target: T3, TREK-1^CG* (Mus musculus, UniProt P97438, S146C); experiment: as above; assay type: cell-based; details: 20 μM CAT335
T3 construct: expressed in transfected cells; host or cells: HEK293 (pIRES2-EGFP vector)
T3 sequence (P97438 1-411 isoform P97438-2 S131C): T2 sequence (P97438 1-411 isoform P97438-2 S131C/A286F) with F286A
From the text: as §1, §2, §3

[2] = test system: HEK293 cells (no exogenous K2P expression); experiment: Resting membrane potential, current-clamp (I=0) in control HEK293 cells; assay type: cell-based; details: 20 μM CAT335
Method: 50% confluent cells were co-transfected (in 35-mm diameter wells) with 10-100 ng of the K2P2.1 plasmid and 400 ng of an eGFP plasmid (for visualization) using LipofectAMINE 2000 (Invitrogen) for 24 h, after which the cells were either plated onto coverslips or the media exchanged with fresh media. Cells were plated onto Matrigel coated coverslips (BD Biosciences) 1-2 hours before experiments.
Whole-cell patch-clamp experiments with K2P2.1(TREK-1) and mutants were carried out 24-48 h after transfection. Acquisition and analysis for voltage-clamp experiments were performed using pCLAMP10 and an Axopatch 200B amplifier (Molecular Devices). Current-clamp experiments were acquired using an […] amplifier (Molecular Devices). Pipettes were pulled using a Flaming/Brown micropipette puller (P-97, Sutter Instruments) and flame-polished using a MF-830 microforge (Narishige). Electrode resistance after filling with pipette internal solution ranged from 2 to 5 MΩ. Currents were low-pass filtered at 2 kHz and sampled at 10 kHz. Pipette solution contained the following: 145 mM KCl, 3 mM MgCl2, 5 mM EGTA and 20 mM HEPES (pH 7.2 with KOH). Bath solution contained the following: 145 mM NaCl, 5 mM KCl, 1 mM CaCl2, 3 mM MgCl2 and 20 mM HEPES (pH 7.4 with NaOH). […] Data were analyzed using Clampfit 11 and GraphPad Prism 9.

Solubility in aqueous solutions [1] | Change of resting membrane potential (ΔRMP) (A286F TREK-1^CG*) [mV] | Change of resting membrane potential (ΔRMP) (TREK-1^CG*) [mV] | Structure (SMILES) | Sensitivity of channel to activator (K2P4.1 (TRAAK)) | Change of resting membrane potential (ΔRMP) [2]
insoluble in aqueous solutions |  |  | CS(=O)(=O)Nc1ccc(C(=O)NCc2ccc(Cl)cc2Cl)cc1 [ML335, reference compound] | insensitive | 
 | −27 | −6 | O=C(NCc1ccc(Cl)cc1Cl)c1ccc(N2C(=O)C=CC2=O)cc1 [CAT335] |  | +7 mV

From patent publication US20260098008A1, “COVALENT, CHEMOGENETIC ACTIVATORS FOR K2P POTASSIUM CHANNELS AND USES THEREOF” (THE REGENTS OF THE UNIVERSITY OF CALIFORNIA, priority 2022, published 2026)
